Earlier results, collected in patent US11033601B2, “Selective inhibition of V1b for treating fatty liver” (The Regents of the University of Colorado, priority 2017, dated 2021).

Target: V2 receptors (Homo sapiens, UniProt P30518)
Sequence (P30518 whole entry): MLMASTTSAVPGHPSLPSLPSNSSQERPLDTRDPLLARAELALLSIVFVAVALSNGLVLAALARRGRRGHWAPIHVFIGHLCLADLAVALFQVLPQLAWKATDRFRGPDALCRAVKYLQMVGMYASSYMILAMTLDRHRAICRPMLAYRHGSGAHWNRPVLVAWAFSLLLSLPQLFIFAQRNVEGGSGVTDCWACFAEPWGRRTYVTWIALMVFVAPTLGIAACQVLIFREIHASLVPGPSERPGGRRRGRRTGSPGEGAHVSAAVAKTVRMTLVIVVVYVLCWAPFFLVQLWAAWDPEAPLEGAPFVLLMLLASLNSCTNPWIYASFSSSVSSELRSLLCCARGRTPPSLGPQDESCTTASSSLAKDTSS

For `COc1ccc(S(=O)(=O)N2C(=O)[C@@](c3ccccc3OC)(N3C[C@H](O)C[C@H]3C(=O)N(C)C)c3cc(Cl)ccc32)c(OC)c1` [Nelivaptan], the “effects on V2 receptors” value is given as “little effects”.
